Assays:
[1] = system: BxPC-3; test: Signaling events (p21Waf1/Cip1, p53) in BxPC-3 cells; type: cell-based, human
Source text: (§1) SN-38 is known to activate several signaling pathways in cells, leading to apoptosis (e.g., Cusack et al., 2001, Cancer Res 61:3535-40; Liu et al. 2009, Cancer Lett 274:47-53; Lagadec et al., 2008, Br J Cancer 98:335-44). Our initial studies examined the expression of 2 proteins involved in early signaling events (p21^Waf1/Cip1 and p53) and 1 late apoptotic event [cleavage of poly-ADP-ribose polymerase (PARP)] in vitro (not shown).

[2] = system: MDA-MB-468; test: MTS cytotoxicity assay, MDA-MB-468; type: cell-based, human; details: Example 5, 96 h
[3] = system: Calu-3; test: Signaling events (p21Waf1/Cip1, p53) in Calu-3 cells; type: cell-based, human
Source text: as §1

[4] = system: COLO 205 colonic adenocarcinoma xenografts
[5] = system: SK-MES-1 human squamous cell lung tumors; test: Therapy of SK-MES-1 tumor xenografts in nude mice; details: hA20 ADC equal dose; irinotecan at MTD (q2dx5)
[6] = system: metastatic colon cancer; test: Subcutaneous IMMU-130 in a patient with metastatic colon cancer (Example 11); type: in vivo, human; details: s.c. 4 mg/kg 3 times weekly for 2 weeks, 3 cycles; CT 8 weeks from treatment begin
Protocol: A person with metastatic colon cancer (3-5 cm diameters) to their left and right liver lobes, as well as a 5 cm metastasis to their right lung, and an elevated blood CEA value of 130 ng/mL, is treated with the anti-CEACAM-5 ADC IMMU-130 (hMN-14-CL2A-SN-38) administered subcutaneously at a dosage of 4 mg/kg, given 3 times weekly for 2 weeks, followed by rest, with 3 cycles of drug administration. […] Repeated courses of therapy continue as their neutropenia normalizes.

[7] = Drug release from the linker in IMMU-130
[8] = Tolerability study of IMMU-130 in rabbits; type: in vivo, white New Zealand rabbits; details: given as two doses
Protocol: (§2) Experiments were conducted in female athymic nude mice, 4 weeks or older, bearing s.c. LS174T human colon carcinoma xenografts of (˜0.2 cm^3 size), or 2 weeks after lung metastases were generated by i.v. injection of GW-39 human colon carcinoma cells. Untreated controls, including a non-targeting ADC, were included. […] Tolerability studies were conducted in white New Zealand rabbits.

[9] = system: metastatic colon cancer; test: S.C. hMN-14-SN-38 ADC in advanced metastatic colon cancer (Example 16); type: in vivo, human; details: 2 mg/kg S.C. twice-weekly every other week, 3-month CT evaluation
Protocol: The hMN-14-SN-38 ADC is administered at a dosage of 2 mg/kg S.C., twice-weekly, which is repeated every other week for 4 months.

[10] = system: gastric adenocarcinoma metastases; test: I.V. and S.C. IMMU-130 in a gastric cancer patient (Example 15); type: in vivo, human
Source text: Their fourth infusion is postponed by one week, and then the weekly infusions are reinstituted, with no evidence of diarrhea or neutropenia for the next 4 injection. The patient then undergoes a CT study to measure their metastatic tumor sizes and to view the original area of gastric resection. The radiologist measures, according to RECIST criteria, a decrease of the sum of the metastatic lesions, compared to baseline prior to IMMU-130 therapy, of 23%. […] The patient's general condition improves and they resume their usual activities while continuing to receive a maintenance therapy of 3 mg/kg administered twice-weekly subcutaneously of IMMU-130 every six weeks for another 4 courses of therapy. At the last measurement of blood CEA, the value is 4.8 ng/mL, which is within the normal range for a smoker, which is the case for this patient.

[11] = system: metastatic colonic cancer; test: IMMU-130 in a patient with advanced colon cancer (Example 13); type: in vivo, human
Source text: The patient is a person with a history of stage-IV metastatic colonic cancer, first diagnosed in 2008 and given a colectomy and partial hepatectomy for the primary and metastatic colonic cancers, respectively. […] In 2009, they received radiofrequency ablation therapy to their liver metastasis while under chemo-immunotherapy, and in late 2010 they underwent a wedge resection of their lung metastases, which was repeated a few months later, in early 2011. Despite having chemo-immunotherapy in 2011, new lung metastases appeared at the end of 2011, and in 2012, both lung and liver metastases were visualized. Their baseline plasma carcinoembryonic antigen (CEA) titer was 12.5 ng/mL just before undergoing the antibody-drug therapy with IMMU-130. The index lesions chosen by the radiologist for measuring tumor size change by computed tomography were the mid-lobe of the right lung and the liver metastases, both totaling 91 mm as the sum of their longest diameters at the baseline prior to IMMU-130 (anti-CEACAM5-SN-38) therapy.
This patient received doses of 10 mg/kg of IMMU-130 by slow IV infusion every other week for a total of 17 treatment doses. The patient tolerated the therapy well, having only a grade 1 nausea, diarrhea and fatigue after the first treatment, which occurred after treatments 4 and 5, but not therafter, because they received medication for these side-effects. After treatment 3, they did show alopecia (grade 2), which was present during the subsequent therapy. The nausea, diarrhea, and occasional vomiting lasted only 2-3 days, and their fatigue after the first infusion lasted 2 weeks. Otherwise, the patient tolerated the therapy well.

[12] = system: GW-39 human colon carcinoma lung metastases; test: IMMU-130 therapy of GW-39 lung metastases in nude mice; type: in vivo, athymic nude mice
Protocol: as §2

[13] = system: LS174T human colon carcinoma xenografts; test: IMMU-130 therapy of s.c. LS174T xenografts in nude mice; type: in vivo, athymic nude mice; details: s.c. model
Protocol: as §2

[14] = system: Calu-3 non-small cell lung carcinoma xenografts; test: Therapy of Calu-3 tumor xenografts in nude mice; type: in vivo, athymic nude mice; details: 0.4 mg/kg SN-38 q4dx4
Protocol: FIG. 4A. […] Mice bearing Calu-3 tumors (N=5-7) were injected with hRS7-CL2-SN-38 every 4 days for a total of 4 injections (q4dx4).

[15] = FIG. 3A
Protocol: Table printed on a drawing sheet, FIG. 3A
Footnotes: CL2-SN-38: AA = Phe / CL2A-SN-38: AA = None
The patent's description of the figure: FIG. 3A. Structures of CL2-SN-38 and CL2A-SN-38.
FIG. 3C. […] Capan-1 mice (N=10) were treated with 0.2 mg/kg ADC and tumors measured weekly.

[16] = system: Capan-1 pancreatic adenocarcinoma xenografts; test: Therapy of Capan-1 tumor xenografts in nude mice; type: in vivo, athymic nude mice; details: 0.2 mg/kg SN-38 twice weekly×4 weeks
Protocol: FIG. 3C. […] Animals were treated twice weekly for 4 weeks as indicated by the arrows. Capan-1 mice (N=10) were treated with 0.2 mg/kg ADC and tumors measured weekly.
FIG. 4C. […] Capan-1 (N=10) were treated twice weekly for 4 weeks with the agents indicated.

[17] = Tolerability in Cynomolgus monkeys; type: in vivo, Cynomolgus monkeys (Macaca fascicularis)
Protocol: FIG. 5C. Tolerability of hRS7-CL2A-SN-38 in Cynomolgus monkeys. […] All animals were bled on day −1, 3, and 6. Four monkeys were bled on day 11 in the 0.96 mg/kg group, 3 in the 1.92 mg/kg group. Changes in neutrophil counts in Cynomolgus monkeys.
FIG. 5D. Tolerability of hRS7-CL2A-SN-38 in Cynomolgus monkeys. […] All animals were bled on day −1, 3, and 6. Four monkeys were bled on day 11 in the 0.96 mg/kg group, 3 in the 1.92 mg/kg group. Changes in platelet counts in Cynomolgus monkeys.

[18] = Body weight loss in the murine therapy studies; type: in vivo, mice; details: all murine studies
[19] = system: diverse metastatic cancers; test: Phase I/II clinical trial of IMMU-132 (Example 9): best response and TTP
[20] = Pharmacokinetics of MAb vs. ADC (IMMU-130) in mice; type: in vivo
Protocol: as §2

[21] = esophageal cancer, 4 assessable patients

Molecule: CCc1c2c(nc3ccc(O)cc13)-c1cc3c(c(=O)n1C2)COC(=O)[C@]3(O)CC [SN-38, reference compound]
- time of p53 upregulation [1]: 48 h
- IC50 [2]: 1.54 nM
- time of p53 upregulation [3]: 48 h

Molecule: CCc1c2c(nc3ccc(OC(=O)N4CCC(N5CCCCC5)CC4)cc13)-c1cc3c(c(=O)n1C2)COC(=O)[C@]3(O)CC [irinotecan, reference compound]
- effectiveness of the MTD of irinotecan ([4]; 24 mg SN-38/kg, q2dx5): as effective as hRS7-CL2-SN-38
- antitumor effect relative to the specific conjugate [5]: provided the same antitumor effects as the specific hRS7-SN-38 conjugate

Molecule: CC(=O)O[C@H]1C(=O)[C@@]2(C)[C@H]([C@H](OC(=O)c3ccccc3)[C@]3(O)C[C@H](OC(=O)[C@H](O)[C@@H](NC(=O)c4ccccc4)c4ccccc4)C(C)=C1C3(C)C)[C@]1(OC(C)=O)CO[C@@H]1C[C@@H]2O [paclitaxel]
- IC50 ([2]; Homo sapiens, MDA-MB-468): < 0.061 nM

Molecule: IMMU-130: CEACAM5-targeted ADC, labetuzumab-SN-38, substituted at 7-8 moles/mole of IgG
- reduction of the total mean diameters of the 3 target lesions [6]: 25%
- time for liberating 50% of drug [7]: ~20 h
- NOAEL, human equivalent dose [8]: 40 to 60 mg/kg
- response by RECIST criteria [9]: partial response
- decrease of the sum of the metastatic lesions (RECIST) ([10]; 8 mg/kg I.V. weekly, first CT study): 23%
- grade of diarrhea ([10]; after 3 weeks of 8 mg/kg I.V.): 1
- grade of neutropenia ([10]; after 3 weeks of 8 mg/kg I.V.): 2
- decrease of the sum of all metastatic lesions ([10]; after a total of 13 infusions of 8.0 mg/kg I.V.): 41%
- CEA titer ([10]; at first CT study, baseline 14.5 ng/mL): 7.2 ng/mL
- blood CEA ([10]; last measurement, s.c. maintenance 3 mg/kg twice-weekly): 4.8 ng/mL
- grade of nausea, diarrhea and fatigue ([11]; 10 mg/kg IV): 1
- change in index lesions from baseline (CT) ([11]; 10 mg/kg IV every other week, after 4 treatments): 28.6%
- reduction in index lesions from baseline (CT) ([11]; after 8 treatments): 40.6%
- anti-labetuzumab antibody in blood ([11]; after 16 doses): none was detected
- plasma CEA titer ([11]; after the third therapy dose, baseline 12.6 ng/mL): 2.1 ng/mL
- grade of alopecia ([11]; after treatment 3): 2
- index lesions less than baseline (CT) ([11]; another 2 months later): 31.9%
- effect of pre-dosing with labetuzumab on median survival ([12]; pre-dose up to twice the ADC dose, n=10): did not affect median survival
- median survival vs. untreated mice ([12]; total 50 mg/kg ADC, 2 cycles of 21 days, twice-weekly×2 weeks and once weekly×2 weeks schedules): doubled median survival
- efficacy vs. the conjugate with an ultrastable linker ([13]; n=5): superior
- efficacy of combination with bevacizumab ([13]; n=8-10, P<0.031): improved efficacy
- efficacy vs. an MTD of 5 FU/leucovorin chemotherapy ([13]; n=10, P<0.0001): better

Molecule: hLL2-CL2-SN-38 [reference compound]
- tumor outcome [14]: tumors regrew

Molecule: hRS7 IgG
- time of p53 upregulation [1]: 48 h
- time of p53 upregulation [3]: 48 h

Molecule: hRS7-CL2-SN-38 [listing 1 of 2 here]
- HUMAN SERUM HALF-LIFE [15]: 22.1 h

Molecule: hRS7-CL2-SN-38 [listing 2 of 2 here]
- tumor growth vs. saline and hA20-CL2A-SN-38 ([4]; 0.4 mg/kg SN-38 twice weekly×4 weeks): significantly inhibited tumor growth
- time by which all mice were cured [14]: ≤ 28 days
- tumor outcome [14]: remained tumor-free until the end of the study on day 147
- tumor growth vs. saline and hA20-CL2A-SN-38 [16]: significantly inhibited tumor growth
- mice tumor-free at the end of the study ([16]; day 140): 40%

Molecule: hRS7-CL2A-SN-38
- HUMAN SERUM HALF-LIFE [15]: 20.3 h

Molecule: hRS7-SN-38
- tolerated cumulative human equivalent dose ([17]; cynomolgus monkey, in vivo): 22 mg/m^2
- tolerated dose ([17]; mild and reversible toxicity): 0.96 mg/kg/dose
- extrapolated human dose ([17]; per dose): ~11 mg/m^2
- tolerability in terms of body weight loss [18]: well tolerated
- reduction in target lesions ([19]; CRC patient, 8 mg/kg, first CT assessment): 37%
- maximum reduction in target lesions ([19]; CRC patient, after 10 months of treatment): 65%
- Best Response: PD, number of patients ([19]; CRC, 18 assessable patients): 6
- Best Response: PR, number of patients ([19]; CRC, 18 assessable patients): 1
- Best Response: SD, number of patients ([19]; CRC, 18 assessable patients): 11
- Best Response: PD, number of patients ([19]; NSCLC, 5 assessable patients): 1
- Best Response: PR, number of patients ([19]; NSCLC, 5 assessable patients): 1
- Best Response: SD, number of patients ([19]; NSCLC, 5 assessable patients): 3
- Best Response: PD, number of patients ([19]; SCLC, 4 assessable patients): 2
- Best Response: PR, number of patients ([19]; SCLC, 4 assessable patients): 2
- Best Response: SD, number of patients ([19]; SCLC, 4 assessable patients): 0
- Best Response: PD, number of patients ([19]; TNBC, 8 assessable patients): 2
- Best Response: PR, number of patients ([19]; TNBC, 8 assessable patients): 2
- Best Response: SD, number of patients ([19]; TNBC, 8 assessable patients): 4
- Best Response: PD, number of patients ([19]; all patients, 48 assessable): 14
- Best Response: PR, number of patients ([19]; all patients, 48 assessable): 7
- Best Response: SD, number of patients ([19]; all patients, 48 assessable): 27
- Best Response: PD, number of patients [19, 21]: 1
- Best Response: PR, number of patients [19, 21]: 1
- Best Response: SD, number of patients [19, 21]: 2

Molecule: labetuzumab
- half-life longer for MAb vs. ADC [20]: ~25%

Source: US10799597B2, “Subcutaneous administration of antibody-drug conjugates for cancer therapy” (Immunomedics, Inc., priority 2017, dated 2020)
